Tested on: diabetic non human primates (NHPs) under a high-calorie diet (HCD)
Assay: Diabetic monkey model;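 further: male obese diabetic cynomolgus monkeys fed a high-fat, high-fructose diet, randomized into 4 groups, dosed with test compound for 8 weeks, then a 4-week washout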
Conditions: for Oral glucose tolerance test (glucose AUC): fasted animals; for Hepatic echogenicity (H/R ratio): Hepatic (right lobe)/Renal cortex (right kidney) ratio, ultrasound
[1] = week 1, treatment, metformin 25 mg/kg b.i.d., Cpd 18 30 mg/kg q.d., p.o.
[2] = week 2, treatment, metformin 25 mg/kg b.i.d., Cpd 18 30 mg/kg q.d., p.o.
[3] = week 3, treatment, metformin 25 mg/kg b.i.d., Cpd 18 30 mg/kg q.d., p.o.
[4] = week 4, treatment, metformin 25 mg/kg b.i.d., Cpd 18 30 mg/kg q.d., p.o.
[5] = week 9, washout without treatment
[6] = week 10, washout without treatment
[7] = week 11, washout without treatment
[8] = week 12, washout without treatment

Procedure: The aim of this assay is to determine the effect of a test compound on lipid metabolism and glucose handling in diabetic non human primates (NHPs) under a high-calorie diet (HCD) consisting of high-fat and high-fructose.
Male obese diabetic cynomolgus monkeys were selected based on their body weights, glucose, insulin levels, and blood lipid parameters. The inclusion criteria were the following: age ≤22 years; fasted plasma glucose between 120 and 300 mg/dL; triglycerides >125 mg/dL, and insulin >75 mIU/mL.
The animals are maintained at 20-23° C. and 40-70% humidity on a 12 h light/dark cycle (7 AM-7 PM). Water is provided ad libitum and the animals are fed twice daily with the high-calorie diet (HCD) enriched with seasonal fruits or vegetables.
After the baseline period, animals were randomized into 4 groups according to body weight, as well as their blood glucose and lipid parameters.
The following parameters were measured once per week during the 8 weeks of treatment and also during the 4 weeks of washout: • body weight • food consumption • blood chemistry (fasted blood glucose, plasma triglycerides, plasma total cholesterol, low density lipoproteins (LDL), and high density lipoproteins (HDL))
Oral glucose tolerance was measured in fasted animals before treatment initiation (baseline), at the end of the treatment period (week 8), and after 4 weeks of washout (week 12).

Cc1nn(C(C)C)c(C)c1-c1cnn2ccc(-c3cc(C(=O)O)co3)cc12 [Cpd 18, 5-[3-(1-isopropyl-3,5-dimethyl-pyrazol-4-yl)pyrazolo[1,5-a]pyridin-5-yl]furan-3-carboxylic acid]
HDL change (% change from baseline) (Group 2, week 1, treatment): 14.1%
LDL change (% change from baseline) (Group 2, week 1, treatment): 52.8%
Total cholesterol change (% change from baseline) (Group 2, week 1, treatment): 48.2 % change from baseline
Triglyceride change (% change from baseline) (Group 2, week 1, treatment): −33.3 % change from baseline
HDL change (% change from baseline) (Group 2, week 2, treatment): 8.4%
LDL change (% change from baseline) (Group 2, week 2, treatment): 38.3%
Total cholesterol change (% change from baseline) (Group 2, week 2, treatment): 33.8 % change from baseline
Triglyceride change (% change from baseline) (Group 2, week 2, treatment): −31.2 % change from baseline
HDL change (% change from baseline) (Group 2, week 3, treatment): 6.2%
LDL change (% change from baseline) (Group 2, week 3, treatment): 16.6%
Total cholesterol change (% change from baseline) (Group 2, week 3, treatment): 18.6 % change from baseline
Triglyceride change (% change from baseline) (Group 2, week 3, treatment): −36.7 % change from baseline
HDL change (% change from baseline) (Group 2, week 4, treatment): −4.3%
LDL change (% change from baseline) (Group 2, week 4, treatment): 31.0%
Total cholesterol change (% change from baseline) (Group 2, week 4, treatment): 28.0 % change from baseline
Triglyceride change (% change from baseline) (Group 2, week 4, treatment): −44.2 % change from baseline
HDL change (% change from baseline) (Group 2, week 5, treatment): 4.2%
LDL change (% change from baseline) (Group 2, week 5, treatment): 5.1%
Total cholesterol change (% change from baseline) (Group 2, week 5, treatment): 3.2 % change from baseline
Triglyceride change (% change from baseline) (Group 2, week 5, treatment): −62.6 % change from baseline
HDL change (% change from baseline) (Group 2, week 6, treatment): 11.7%
LDL change (% change from baseline) (Group 2, week 6, treatment): −10.5%
Total cholesterol change (% change from baseline) (Group 2, week 6, treatment): −6.7 % change from baseline
Triglyceride change (% change from baseline) (Group 2, week 6, treatment): −59.6 % change from baseline
HDL change (% change from baseline) (Group 2, week 7, treatment): 13.0%
LDL change (% change from baseline) (Group 2, week 7, treatment): −17.2%
Total cholesterol change (% change from baseline) (Group 2, week 7, treatment): −12.0 % change from baseline
Triglyceride change (% change from baseline) (Group 2, week 7, treatment): −55.9 % change from baseline
HDL change (% change from baseline) (Group 2, week 8, treatment): 12.4%
LDL change (% change from baseline) (Group 2, week 8, treatment): −10.5%
Total cholesterol change (% change from baseline) (Group 2, week 8, treatment): −5.1 % change from baseline
Triglyceride change (% change from baseline) (Group 2, week 8, treatment): −39.3 % change from baseline
HDL change (% change from baseline) (Group 2, week 9, washout): 13.5%
LDL change (% change from baseline) (Group 2, week 9, washout): −1.6%
Total cholesterol change (% change from baseline) (Group 2, week 9, washout): 5.8 % change from baseline
Triglyceride change (% change from baseline) (Group 2, week 9, washout): −33.4 % change from baseline
HDL change (% change from baseline) (Group 2, week 10, washout): 22.7%
LDL change (% change from baseline) (Group 2, week 10, washout): 38.6%
Total cholesterol change (% change from baseline) (Group 2, week 10, washout): 42.4 % change from baseline
Triglyceride change (% change from baseline) (Group 2, week 10, washout): 9.8 % change from baseline
HDL change (% change from baseline) (Group 2, week 11, washout): 21.2%
LDL change (% change from baseline) (Group 2, week 11, washout): 81.5%
Total cholesterol change (% change from baseline) (Group 2, week 11, washout): 83.8 % change from baseline
Triglyceride change (% change from baseline) (Group 2, week 11, washout): 49.7 % change from baseline
HDL change (% change from baseline) (Group 2, week 12, washout): 24.9%
LDL change (% change from baseline) (Group 2, week 12, washout): 118.6%
Total cholesterol change (% change from baseline) (Group 2, week 12, washout): 115.8 % change from baseline
Triglyceride change (% change from baseline) (Group 2, week 12, washout): 32.2 % change from baseline
HDL change (% change from baseline) (Group 3, week 1, treatment): 18.6%
LDL change (% change from baseline) (Group 3, week 1, treatment): 60.5%
Total cholesterol change (% change from baseline) (Group 3, week 1, treatment): 46.1 % change from baseline
Triglyceride change (% change from baseline) (Group 3, week 1, treatment): −20.2 % change from baseline
HDL change (% change from baseline) (Group 3, week 2, treatment): 3.7%
LDL change (% change from baseline) (Group 3, week 2, treatment): 58.3%
Total cholesterol change (% change from baseline) (Group 3, week 2, treatment): 41.5 % change from baseline
Triglyceride change (% change from baseline) (Group 3, week 2, treatment): −56.1 % change from baseline
HDL change (% change from baseline) (Group 3, week 3, treatment): 7.7%
LDL change (% change from baseline) (Group 3, week 3, treatment): 35.1%
Total cholesterol change (% change from baseline) (Group 3, week 3, treatment): 22.3 % change from baseline
Triglyceride change (% change from baseline) (Group 3, week 3, treatment): −41.6 % change from baseline
HDL change (% change from baseline) (Group 3, week 4, treatment): −12.0%
LDL change (% change from baseline) (Group 3, week 4, treatment): −28.7%
Total cholesterol change (% change from baseline) (Group 3, week 4, treatment): −22.3 % change from baseline
Triglyceride change (% change from baseline) (Group 3, week 4, treatment): −44.5 % change from baseline
HDL change (% change from baseline) (Group 3, week 5, treatment): 1.0%
LDL change (% change from baseline) (Group 3, week 5, treatment): −27.5%
Total cholesterol change (% change from baseline) (Group 3, week 5, treatment): −21.0 % change from baseline
Triglyceride change (% change from baseline) (Group 3, week 5, treatment): −44.4 % change from baseline
HDL change (% change from baseline) (Group 3, week 6, treatment): 9.5%
LDL change (% change from baseline) (Group 3, week 6, treatment): −33.2%
Total cholesterol change (% change from baseline) (Group 3, week 6, treatment): −26.5 % change from baseline
Triglyceride change (% change from baseline) (Group 3, week 6, treatment): −46.2 % change from baseline
HDL change (% change from baseline) (Group 3, week 7, treatment): 8.3%
LDL change (% change from baseline) (Group 3, week 7, treatment): −39.4%
Total cholesterol change (% change from baseline) (Group 3, week 7, treatment): −30.5 % change from baseline
Triglyceride change (% change from baseline) (Group 3, week 7, treatment): −35.0 % change from baseline
HDL change (% change from baseline) (Group 3, week 8, treatment): −0.9%
LDL change (% change from baseline) (Group 3, week 8, treatment): −27.9%
Total cholesterol change (% change from baseline) (Group 3, week 8, treatment): −20.4 % change from baseline
Triglyceride change (% change from baseline) (Group 3, week 8, treatment): −37.4 % change from baseline
HDL change (% change from baseline) (Group 3, week 9, washout): 1.5%
LDL change (% change from baseline) (Group 3, week 9, washout): −41.8%
Total cholesterol change (% change from baseline) (Group 3, week 9, washout): −31.5 % change from baseline
Triglyceride change (% change from baseline) (Group 3, week 9, washout): −49.3 % change from baseline
HDL change (% change from baseline) (Group 3, week 10, washout): 8.0%
LDL change (% change from baseline) (Group 3, week 10, washout): −13.5%
Total cholesterol change (% change from baseline) (Group 3, week 10, washout): −8.2 % change from baseline
Triglyceride change (% change from baseline) (Group 3, week 10, washout): −45.9 % change from baseline
HDL change (% change from baseline) (Group 3, week 11, washout): 21.9%
LDL change (% change from baseline) (Group 3, week 11, washout): 10.2%
Total cholesterol change (% change from baseline) (Group 3, week 11, washout): 15.5 % change from baseline
Triglyceride change (% change from baseline) (Group 3, week 11, washout): −19.9 % change from baseline
HDL change (% change from baseline) (Group 3, week 12, washout): 23.9%
LDL change (% change from baseline) (Group 3, week 12, washout): 46.2%
Total cholesterol change (% change from baseline) (Group 3, week 12, washout): 48.7 % change from baseline
Triglyceride change (% change from baseline) (Group 3, week 12, washout): 18.8 % change from baseline
HDL change (% change from baseline) (Group 4, week 1, treatment): 2.1%
LDL change (% change from baseline) (Group 4, week 1, treatment): 67.1%
Total cholesterol change (% change from baseline) (Group 4, week 1, treatment): 50.9 % change from baseline
Triglyceride change (% change from baseline) (Group 4, week 1, treatment): −31.7 % change from baseline
HDL change (% change from baseline) (Group 4, week 2, treatment): −13.1%
LDL change (% change from baseline) (Group 4, week 2, treatment): 46.7%
Total cholesterol change (% change from baseline) (Group 4, week 2, treatment): 30.3 % change from baseline
Triglyceride change (% change from baseline) (Group 4, week 2, treatment): −30.0 % change from baseline
HDL change (% change from baseline) (Group 4, week 3, treatment): −14.9%
LDL change (% change from baseline) (Group 4, week 3, treatment): 33.6%
Total cholesterol change (% change from baseline) (Group 4, week 3, treatment): 20.9 % change from baseline
Triglyceride change (% change from baseline) (Group 4, week 3, treatment): −28.2 % change from baseline
HDL change (% change from baseline) (Group 4, week 4, treatment): −16.0%
LDL change (% change from baseline) (Group 4, week 4, treatment): −21.9%
Total cholesterol change (% change from baseline) (Group 4, week 4, treatment): −22.6 % change from baseline
Triglyceride change (% change from baseline) (Group 4, week 4, treatment): −48.3 % change from baseline
HDL change (% change from baseline) (Group 4, week 5, treatment): −6.9%
LDL change (% change from baseline) (Group 4, week 5, treatment): 0.0%
Total cholesterol change (% change from baseline) (Group 4, week 5, treatment): −7.8 % change from baseline
Triglyceride change (% change from baseline) (Group 4, week 5, treatment): −52.3 % change from baseline
HDL change (% change from baseline) (Group 4, week 6, treatment): 0.3%
LDL change (% change from baseline) (Group 4, week 6, treatment): 2.1%
Total cholesterol change (% change from baseline) (Group 4, week 6, treatment): −2.6 % change from baseline
Triglyceride change (% change from baseline) (Group 4, week 6, treatment): −50.8 % change from baseline
HDL change (% change from baseline) (Group 4, week 7, treatment): 0.9%
LDL change (% change from baseline) (Group 4, week 7, treatment): −38.5%
Total cholesterol change (% change from baseline) (Group 4, week 7, treatment): −32.9 % change from baseline
Triglyceride change (% change from baseline) (Group 4, week 7, treatment): −63.2 % change from baseline
HDL change (% change from baseline) (Group 4, week 8, treatment): 8.7%
LDL change (% change from baseline) (Group 4, week 8, treatment): −32.5%
Total cholesterol change (% change from baseline) (Group 4, week 8, treatment): −26.1 % change from baseline
Triglyceride change (% change from baseline) (Group 4, week 8, treatment): −56.1 % change from baseline
HDL change (% change from baseline) (Group 4, week 9, washout): 18.9%
LDL change (% change from baseline) (Group 4, week 9, washout): −20.0%
Total cholesterol change (% change from baseline) (Group 4, week 9, washout): −15.5 % change from baseline
Triglyceride change (% change from baseline) (Group 4, week 9, washout): −60.2 % change from baseline
HDL change (% change from baseline) (Group 4, week 10, washout): 6.0%
LDL change (% change from baseline) (Group 4, week 10, washout): 29.3%
Total cholesterol change (% change from baseline) (Group 4, week 10, washout): 10.9 % change from baseline
Triglyceride change (% change from baseline) (Group 4, week 10, washout): −58.1 % change from baseline
HDL change (% change from baseline) (Group 4, week 11, washout): 11.0%
LDL change (% change from baseline) (Group 4, week 11, washout): 45.1%
Total cholesterol change (% change from baseline) (Group 4, week 11, washout): 28.5 % change from baseline
Triglyceride change (% change from baseline) (Group 4, week 11, washout): −41.4 % change from baseline
HDL change (% change from baseline) (Group 4, week 12, washout): 12.0%
LDL change (% change from baseline) (Group 4, week 12, washout): 87.5%
Total cholesterol change (% change from baseline) (Group 4, week 12, washout): 58.3 % change from baseline
Triglyceride change (% change from baseline) (Group 4, week 12, washout): −65.4 % change from baseline
Oral glucose tolerance test (glucose AUC) (week 0, baseline (before treatment initiation)): 2371 mmol·min/L
Bodyweight change (% change from baseline) [1]: 0.4%
HbA1c change (% change from baseline) [1]: −6.3%
Bodyweight change (% change from baseline) [2]: −1.9%
HbA1c change (% change from baseline) [2]: −9.4%
Bodyweight change (% change from baseline) [3]: −3.8%
HbA1c change (% change from baseline) [3]: −17.2%
Bodyweight change (% change from baseline) [4]: −5.6%
HbA1c change (% change from baseline) [4]: −24.1%
Oral glucose tolerance test (glucose AUC) (week 8, end of treatment period): 2307 mmol·min/L
Bodyweight change (% change from baseline) [5]: −13.6%
HbA1c change (% change from baseline) [5]: −30.7%
Hepatic echogenicity (H/R ratio) (week 9, washout): 1.03
Bodyweight change (% change from baseline) [6]: −14.5%
HbA1c change (% change from baseline) [6]: −25.6%
Bodyweight change (% change from baseline) [7]: −14.3%
HbA1c change (% change from baseline) [7]: −21.3%
Oral glucose tolerance test (glucose AUC) (week 12, after 4 weeks of washout): 2291 mmol·min/L
Bodyweight change (% change from baseline) [8]: −14.8%
HbA1c change (% change from baseline) [8]: −27.9%
Hepatic echogenicity (H/R ratio) (week −3, baseline): 1.13

— patent US20220144823A1, “PYRAZOLOPYRIDINE DERIVATIVES AS INHIBITORS OF PASK” (Galapagos NV, priority 2019, published 2022)
